From PubChem BioAssay AID1259407 (Chemical Carcinogenesis Research Information System (CCRIS), 2018) come the findings set out here.

The data set relates to CCRIS mutagenicity, Ames/micronucleus/aberration tests. Nature of the data set: CCRIS mutagenicity studies.
[1] abbreviates: Test System: AMES SALMONELLA TYPHIMURIUM, Strain/Indicator: TA98, Metabolic Activation: NONE, Method: PREINCUBATION
The mark [2] stands for this setting: Test System: AMES SALMONELLA TYPHIMURIUM, Strain/Indicator: TA100, Metabolic Activation: NONE, Method: PREINCUBATION

Activity calls are given as the source filed them. How the calls were made is not given here.

Regarding `CCn1cc(C(=O)O)c(=O)c2cc(F)c(N3CCNCC3)cc21`, the mutagenic call runs as follows: (End Point: In vitro micronucleus, Test System: WTK-1 human lymphoma cells, Metabolic Activation: None) “active; positive”; under setting [1], “inactive; negative”; (Test System: AMES SALMONELLA TYPHIMURIUM, Strain/Indicator: TA98, Metabolic Activation: RAT LIVER S-9, AROCLOR 1254, Method: PREINCUBATION) “inactive; negative”; under setting [2], “inactive; negative”; (Test System: AMES SALMONELLA TYPHIMURIUM, Strain/Indicator: TA100, Metabolic Activation: RAT LIVER S-9, AROCLOR 1254, Method: PREINCUBATION) “inactive; negative”; (Test System: AMES SALMONELLA TYPHIMURIUM, Strain/Indicator: TA102, Metabolic Activation: NONE, Method: PREINCUBATION) “active; positive”. Further, the mutagenic call runs as follows: (Test System: AMES SALMONELLA TYPHIMURIUM, Strain/Indicator: TA102, Metabolic Activation: NONE, Method: STANDARD PLATE) “active; positive”; (Test System: AMES SALMONELLA TYPHIMURIUM, Strain/Indicator: TA102, Metabolic Activation: RAT LIVER S-9, AROCLOR 1254, Method: PREINCUBATION) “active; positive”; (Test System: AMES SALMONELLA TYPHIMURIUM, Strain/Indicator: TA102, Metabolic Activation: RAT LIVER S-9, AROCLOR 1254, Method: STANDARD PLATE) “active; positive”; (Test System: AMES SALMONELLA TYPHIMURIUM, Strain/Indicator: TA104, Metabolic Activation: NONE, Method: PREINCUBATION) “active; positive”; (Test System: AMES SALMONELLA TYPHIMURIUM, Strain/Indicator: TA104, Metabolic Activation: RAT LIVER S-9, AROCLOR 1254, Method: PREINCUBATION) “active; positive”; (Test System: AMES SALMONELLA TYPHIMURIUM, Strain/Indicator: UHT8414, Metabolic Activation: NONE, Method: PREINCUBATION) “inactive; negative”. The mutagenic call was “inactive; negative” (Test System: AMES SALMONELLA TYPHIMURIUM, Strain/Indicator: UHT8414, Metabolic Activation: RAT LIVER S-9, AROCLOR 1254, Method: PREINCUBATION); “active; positive. vitamin e (alpha-tocoferol) induced a statistically significant reduct” (Test System: Ames Salmonella typhimurium, Strain/Indicator: TA102, Metabolic Activation: Rat, Liver, S9, Aroclor 1254, Method: Preincubation); “inactive; negative” (Test System: CHINESE HAMSTER V-79, Strain/Indicator: V-79 (HPRT)/6-THIOGUANINE, Metabolic Activation: NONE); “inactive; negative” (Test System: MOUSE LYMPHOMA, Strain/Indicator: L5178Y (HPRT)/6-THIOGUANINE, Metabolic Activation: NONE, Method: FLUCTUATION TEST); “inactive; negative” (Test System: MOUSE LYMPHOMA, Strain/Indicator: L5178Y (TK+/TK-), Metabolic Activation: NONE, Method: FLUCTUATION TEST).
`O=[N+]([O-])c1ccc2c3c4c(cccc4c4ccccc4c13)C1OC21` (configuration not stated): the mutagenic call was “inactive; negative” (Test System: AMES SALMONELLA TYPHIMURIUM, Strain/Indicator: TA98(1,8-DNP6), Metabolic Activation: NONE, Method: STANDARD PLATE); “inactive; negative” (Test System: AMES SALMONELLA TYPHIMURIUM, Strain/Indicator: TA98(1,8-DNP6), Metabolic Activation: RAT, LIVER, S-9, AROCLOR 1254, Method: STANDARD PLATE); “inactive; negative” (Test System: AMES SALMONELLA TYPHIMURIUM, Strain/Indicator: TA98(NR), Metabolic Activation: NONE, Method: STANDARD PLATE); “inactive; negative” (Test System: AMES SALMONELLA TYPHIMURIUM, Strain/Indicator: TA98(NR), Metabolic Activation: RAT, LIVER, S-9, AROCLOR 1254, Method: STANDARD PLATE); “active; positive” (Test System: AMES SALMONELLA TYPHIMURIUM, Strain/Indicator: TA98, Metabolic Activation: NONE, Method: STANDARD PLATE); “active; positive” (Test System: AMES SALMONELLA TYPHIMURIUM, Strain/Indicator: TA98, Metabolic Activation: RAT, LIVER, S-9, AROCLOR 1254, Method: STANDARD PLATE).
For the compound `CC(=O)[O-].CC(=O)[O-].O.O.O.[Pb+2]`, the mutagenic call was “active; positive (aneugenic above 0.05 um)” (End Point: IN VITRO MICRONUCLEUS, Test System: HAMSTER V79 CELLS, Metabolic Activation: NONE); “inactive; negative” (End Point: IN VIVO MICRONUCLEUS, Test System: BLOOD ERYTHROCYTES AND RETICULOCYTES, Species: RAT, Strain/Sex: WISTAR/MALE, FEMALE (SUCKLING), Route: IP INJECTION); “active; positive” (End Point: IN VIVO MICRONUCLEUS, Test System: RETICULOCYTES, ERYTHROCYTES, Species: RAT, Strain/Sex: WISTAR/MALE, FEMALE (SUCKLING), Route: ORAL); “active; positive” (End Point: In vivo micronucleus, Test System: Bone marrow polychromatic erythrocytes, Species: Rat, Strain/Sex: Wistar/Male, female, Route: Oral).
`C=C(C)C(C)Cl` (configuration not stated): the mutagenic call (Test System: AMES SALMONELLA TYPHIMURIUM, Strain/Indicator: TA100, Metabolic Activation: NONE, Method: LIQUID SUSPENSION) is “active; positive”.
`COc1nncc2cccnc12`: the mutagenic call was “inactive; negative” under setting [1]; “inactive; negative” (Test System: AMES SALMONELLA TYPHIMURIUM, Strain/Indicator: TA98, Metabolic Activation: RAT, LIVER, S-9, PCB, Method: PREINCUBATION); “inactive; negative” under setting [2]; “inactive; negative” (Test System: AMES SALMONELLA TYPHIMURIUM, Strain/Indicator: TA100, Metabolic Activation: RAT, LIVER, S-9, PCB, Method: PREINCUBATION).
